The text below walks through data of patent US20260151504A1, “SYNTHETIC CELLS COMPRISING TNF-RELATED APOPTOSIS-INDUCING LIGAND (TRAIL) AND METHODS OF USING THE SAME” (Slingshot Biosciences, Inc., priority 2023, published 2026).

The test system of experiment [1] is Jurkat tumor cells. The experiment is described as follows: Annexin V / 7-AAD flow cytometry of Jurkat tumor cells treated with TRAIL delivery systems. The experiment is classed as cell-based. To be noted: camptothecin 100 nM, percentage of cells. The method, then: (§1) Briefly, 100K live Jeko-1 or Jurkat cells were plated in RPMI media containing 10% Fetal bovine serum and 1% PenStrep in 100 μL volume.
(§2) Synthetic cytotoxic cells and equivalent total molecules of soluble TRAIL were plated 8 hours post seeding of tumor cells in 100 μL total volume. Amount of soluble TRAIL per well to match the amount of microsphere or bead-bound TRAIL was calculated as follows. Assuming 150K TRAIL molecules per microsphere/bead and 1e^6 microsphere/bead per well, 1.5e^11 soluble TRAIL molecules per well were used, which was calculated to be equivalent to 23 ng soluble TRAIL per well.
(§3) Twenty-four and forty-eight hours post incubation, cells were harvested and stained with Annexin V and 7-AAD. Anti-CD19 and Anti-CD3 antibodies were used to separate Jeko-1 cells from beads and Jurkat cells from beads, respectively. While Jeko-1 cells are CD19-expressing B-cells that are TRAIL-sensitive, Jurkat cells are CD3-expressing T cells that have low-moderate sensitivity to TRAIL. Determination of stage of cell death and % apoptotic cells were determined from the gating strategy outlined in FIG. 8. Samples were plated in duplicates and all sample acquisition was performed on the Cytoflex Beckman Coulter Flow Cytometer 24 hours and 48 hours post treatment of tumor cells with treatment conditions. Data analysis was further processed on FlowJo™ v10 software.

For experiment [2], the system named is Jeko-1 tumor cells. The experiment in a line: Annexin V / 7-AAD flow cytometry of Jeko-1 tumor cells treated with TRAIL delivery systems. The experiment is classed as cell-based. The conditions noted are these: camptothecin 100 nM, percentage of cells. The method, then:
as §1, §2, §3
(In flow cytometry, cells or beads pass a laser one at a time.)

The mark [3] stands for this setting: Table 4A, Jeko-1, 24 Hrs., TRAIL equivalent to 1.5e^11 molecules per well.

In the case of `CC[C@@]1(O)C(=O)OCc2c1cc1n(c2=O)Cc2cc3ccccc3nc2-1` [Camptothecin, camptothecin], in experiment [1] (Table 5A, 24 Hrs.), the “Early Stage Apoptotic (7-AAD−/Annexin V+)” value (shortened to “Early Stage Apoptotic”) is on record as 59.8, the “Late Stage Apoptotic (7-AAD+/Annexin V+)” value was determined as 26.9, the “Live Cells (7-AAD−/Annexin V−)” value was determined as 13.1 and the “Necrotic (7-AAD+/Annexin V−)” value was 0.13. In experiment [1] (Table 5B, 48 Hrs.), the “Early Stage Apoptotic” value is listed as 25.5, the “Late Stage Apoptotic (7-AAD+/Annexin V+)” value is on record as 69.8, the “Live Cells (7-AAD−/Annexin V−)” value was determined as 3.36 and the “Necrotic (7-AAD+/Annexin V−)” value was determined as 1.33. Besides, in experiment [2] (setting [3]), the “Early Stage Apoptotic” value turned out to be 56.5, the “Late Stage Apoptotic (7-AAD+/Annexin V+)” value is on record as 39.5, the “Live Cells (7-AAD−/Annexin V−)” value is reported as 3.88 and the “Necrotic (7-AAD+/Annexin V−)” value is reported as 0.077. For the same molecule, in experiment [2] (Table 4B, Jeko-1, 48 Hrs.), the “Early Stage Apoptotic” value was 7.64, the “Late Stage Apoptotic (7-AAD+/Annexin V+)” value is given as 91.0, the “Live Cells (7-AAD−/Annexin V−)” value amounted to 1.19 and the “Necrotic (7-AAD+/Annexin V−)” value was 0.13.
